Here are results for three compounds from paper PMC11550005, “On the function of TRAP substrate-binding proteins: Conformational variation of the sialic acid binding protein SiaP” (The Journal of Biological Chemistry, 2024).

The target in assay [1] is T1, AaSiaP (TRAP N-acetylneuraminate substrate-binding protein SiaP) (Aggregatibacter actinomycetemcomitans, UniProt A0A5D0EK58). The arrangement: gene ACT75_01630.
Assay [2] concerns the target T1, AaSiaP (TRAP N-acetylneuraminate substrate-binding protein SiaP). The experiment in a line: microscale thermophoresis. Also noted: gene ACT75_01630; mature chain without native signal peptide (replaced by pelB), residual N-terminal Met-Asp; strain 624, WP_005538762.1. For orientation: In MST a laser heats a spot of the sample, and binding alters the fluorescence response.

Assay [3] has the same target. The experiment in a line: microscale thermophoresis; also crystal structure ([…] A), DSF, SAXS. The arrangement: gene ACT75_01630; mature chain without native signal peptide (replaced by pelB), residual N-terminal Met-Asp; strain 624, WP_005538762.1.

T1 sequence (A0A5D0EK58 entry or part of it): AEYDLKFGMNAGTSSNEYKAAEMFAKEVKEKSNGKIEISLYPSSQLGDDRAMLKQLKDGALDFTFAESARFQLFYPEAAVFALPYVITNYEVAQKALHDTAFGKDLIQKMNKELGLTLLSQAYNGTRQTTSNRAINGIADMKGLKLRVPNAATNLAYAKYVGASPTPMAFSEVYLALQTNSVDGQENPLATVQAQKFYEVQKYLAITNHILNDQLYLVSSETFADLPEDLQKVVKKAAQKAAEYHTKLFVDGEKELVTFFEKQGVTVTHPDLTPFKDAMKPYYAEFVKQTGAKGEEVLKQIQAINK

For the compound `CC(=O)O` [acetate], the “crystal structure (2.58 A, chains A and B); acetate from the crystallization cond” value in assay [1] is “Acetate makes favorable interactions with residues R127, R147, and N189 on domain II within the binding site of AaSiaP”. The Kd is the free concentration of one partner at which half of the binding sites on the other are occupied at equilibrium, for simple one-to-one binding. Lower therefore signals tighter binding. Compound `O=C(CO)N[C@H]1[C@H]([C@H](O)[C@H](O)CO)O[C@@](O)(C(=O)O)C[C@@H]1O` [Neu5Gc, N-glycolylneuraminate] displayed a Kd in assay [2] of 4400 nM. Regarding `CC(=O)N[C@H]1[C@H]([C@H](O)[C@H](O)CO)O[C@](O)(C(=O)O)C[C@@H]1O` [Neu5Ac, N-acetylneuraminate], the Kd in assay [3] was found to be 430 nM.
